Test results published in the RepoRT retention time repository (doi:10.1016/j.chroma.2015.11.014).

Test: RP, Agilent ZORBAX Eclipse Plus C18, 150 × 2.1 mm, 3.5 µm, 40 °C, 0.3 mL/min, estimated dead time 1.1 min; A: water + 0.1% formic acid; B: acetonitrile + 0.1% formic acid; gradient (min/%B) 0/2 1/2 2/20 16.5/98 22/98
Details: stereoisomer not certain

| LC retention time [min] | SMILES |
| --- | --- |
| 5.19 | Nc1nc(NC2CC2)c2ncn(C3C=CC(C(=O)O)C3)c2n1 (stereo not drawn) |
| 8.07 | O=c1c(O)c(-c2ccc(O)c(O)c2)oc2cc(O)cc(O)c12 |
| 5.62 | CCN1CCCC1CNC(=O)c1cc(S(=O)(=O)CC)c(N)cc1O (stereo not drawn) |
| 5.35 | C=CC[N+](CC)(CC)Cc1ccccc1 |
| 14.9 | CCCCCCCCCCCCCCCCCC[N+](C)(C)Cc1ccccc1 |
| 9.65 | CCCC[P+](CCCC)(CCCC)CCCC |
| 4.96 | CCN1CCCC1CNC(=O)c1cc(S(N)(=O)=O)ccc1OC (stereo not drawn) |
| 13.7 | CCCCCCCCC=CCCCCCCCC[N+](C)(C)C |
| 8.82 | CCNc1nc(NC(C)(C)C)nc(S(C)=O)n1 (stereo not drawn) |
| 8.91 | CCCC[N+](CCCC)(CCCC)CCCC |
| 8.32 | COCCOC(=O)Nc1ccc(C)c(NC(=O)OCCOC)c1 |
| 9.31 | CC(C)CC[P+](c1ccccc1)(c1ccccc1)c1ccccc1 |
| 7.46 | CCCCCC[N+](C)(C)Cc1ccccc1 |
| 12.6 | CCCCCCCCN1CCCC1=O |
| 7.19 | C[P+](c1ccccc1)(c1ccccc1)c1ccccc1 |
| 5.37 | CN(C)CC(c1ccc(O)cc1)C1(O)CCCCC1 (stereo not drawn) |
| 8.52 | [O-]N(O)c1ccc(C[P+](c2ccccc2)(c2ccccc2)c2ccccc2)cc1 |
| 4.35 | O=c1[nH]c(=O)c2ncn(C3OC(CO)C(O)C3O)c2[nH]1 (stereo not drawn) |
| 7.36 | CN1C(C(=O)Nc2ccccn2)=C(O)c2sccc2S1(=O)=O |
| 2.69 | Nc1nc(=S)c2[nH]cnc2[nH]1 |
| 5.65 | CCC(CC)OC1C=C(C(=O)O)CC(N)C1NC(C)=O (stereo not drawn) |
| 8 | CC(CN1c2ccccc2Sc2ccccc21)N(C)C (stereo not drawn) |
| 11.8 | COc1ccc(C(=O)c2ccccc2O)c(O)c1 |
| 6.12 | Cc1nnc(-c2ccccc2)c(=O)[nH]1 |

| LC retention time [min] | SMILES |
| --- | --- |
| 10.8 | CCC(C)(C)C(=O)OC1CC(CO)C=C2C=CC(C)C(CCC3CC(O)CC(=O)O3)C21 (stereo not drawn) |
| 8.82 | O=C(O)c1cccc2c(=O)c3ccccc3[nH]c12 |
| 8.67 | CC12CCC3c4ccc(O)cc4CCC3C1CC(O)C2=O (stereo not drawn) |
| 10.4 | CCN(CC)C(=O)c1cccc(C)c1 |
| 12.7 | CC(C)c1nc(CN(C)C(=O)NC(C(=O)NC(Cc2ccccc2)CC(O)C(Cc2ccccc2)NC(=O)OCc2cncs2)C(C)C)cs1 (stereo not drawn) |
| 9.54 | Cc1c(C(C)C)c(=O)n(-c2ccccc2)n1C |
| 5.82 | CC(C)NC(=O)NS(=O)(=O)c1cnccc1Nc1cccc(CO)c1 |
| 7.85 | CCC1OC(=O)C(C)C(OC2CC(C)(OC)C(O)C(C)O2)C(C)C(OC2OC(C)CC(N(C)C)C2O)C(C)(O)CC(C)C(=O)C(C)C(O)C1(C)O (stereo not drawn) |
| 13.9 | CCCCCCCCCCCCCCCC[N+](C)(C)Cc1ccccc1 |
| 8.07 | C=C1CC23CCC4C(C)(C(=O)OC5OC(CO)C(O)C(O)C5O)CCCC4(C)C2CCC1(OC1OC(CO)C(O)C(O)C1OC1OC(CO)C(O)C(O)C1O)C3 (stereo not drawn) |
| 9.2 | O=C(C[P+](c1ccccc1)(c1ccccc1)c1ccccc1)OCc1ccccc1 |
| 6.76 | CC(O)C(=O)N(C)c1ccccc1 (stereo not drawn) |
| 6.06 | Cc1ccc(-c2nc3ccccc3[nH]2)cc1 |
| 3.4 | Nc1ncnc2c1ncn2C1CC(O)C(CO)O1 (stereo not drawn) |
| 5.9 | Cc1cn(C2CC(N=[N+]=[N-])C(CO)O2)c(=O)[nH]c1=O (stereo not drawn) |
| 8.5 | O=c1c2ccccc2[nH]c2ccccc12 |
| 15.4 | CCOc1ccccc1NC(=O)C(=O)Nc1ccccc1CC |
| 6.77 | CC(=O)CCCCn1c(=O)c2c(ncn2C)n(C)c1=O |
| 3.67 | Oc1ccc(O)cc1 |
| 4.29 | COC(=O)Nc1cccc(N)c1 |
| 9.02 | CC(C)=CC[P+](c1ccccc1)(c1ccccc1)c1ccccc1 |
| 10 | CCCCCCCCCCCC[N+](C)(C)C |
| 4.73 | Cn1c(=O)c2ncn(C)c2n(C)c1=O |
| 8.16 | Nc1ccc2c(c1)C(=O)OC21c2ccc(O)cc2Oc2cc(O)ccc21 |

| LC retention time [min] | SMILES |
| --- | --- |
| 9.8 | CN1CC(=O)N2C(Cc3c([nH]c4ccccc34)C2c2ccc3c(c2)OCO3)C1=O (stereo not drawn) |
| 8.3 | COC(=O)CCCC[P+](c1ccccc1)(c1ccccc1)c1ccccc1 |
| 8.48 | CC(Cc1ccc(C(C)C(=O)O)cc1)C(=O)O (stereo not drawn) |
| 8.43 | Nc1ccccc1C[P+](c1ccccc1)(c1ccccc1)c1ccccc1 |
| 3.47 | O=P(O)(O)Oc1ccccc1 |
| 11.6 | CCCCCCCCCCCC[N+](C)(C)Cc1ccccc1 |
| 4.35 | c1ccc(C2=NCCN2)cc1 |
| 5.37 | CC1(C)SC2C(NC(=O)C(N)c3ccccc3)C(=O)N2C1C(=O)O (stereo not drawn) |
| 7.36 | CCCc1nc(C(C)(C)O)c(C(=O)O)n1Cc1ccc(-c2ccccc2-c2nn[nH]n2)cc1 |
| 5.43 | COc1cc(Cc2c(N)nc(N)[nH]c2=O)cc(OC)c1OC |
| 7.07 | Cc1cc2nc3[nH]c(=O)[nH]c(=O)c3nc2cc1C |
| 5.51 | CC(C)(C)NCC(O)COc1nsnc1N1CCOCC1 (stereo not drawn) |
| 3.21 | CC(C)NCC(O)COc1ccc(C(O)C(N)=O)cc1 (stereo not drawn) |
| 13 | O=C(c1ccccc1)c1ccccc1O |
| 4.63 | CC(C)(C)P(=O)(O)O |
| 5.24 | Nc1ccc(S(=O)(=O)Nc2ncccn2)cc1 |
| 7.45 | CN(CC=CC#CC(C)(C)C(=O)O)Cc1cccc2ccccc12 |
| 4.8 | COCCOC(=O)Nc1cccc(N)c1 |
| 9.36 | c1ccc2sc(N3CCOCC3)nc2c1 |
| 4.58 | CC(=O)Nc1ccc(OC2OC(C(=O)O)C(O)C(O)C2O)cc1 (stereo not drawn) |
| 13.7 | CC(=O)OC1(C(C)=O)CCC2C3CC(C)C4=CC(=O)CCC4(C)C3CCC21C (stereo not drawn) |
| 10 | Oc1ccc(Nc2ccccc2)cc1 |
| 4.58 | CC(C)NCC(O)c1ccc(NS(C)(=O)=O)cc1 (stereo not drawn) |
| 13.8 | c1ccc2sc(SSN3CCOCC3)nc2c1 |

| LC retention time [min] | SMILES |
| --- | --- |
| 4.66 | CCCC[N+]1(C)CCCCC1 |
| 4.46 | CC(=O)Nc1cc(N)cc(C(=O)O)c1 |
| 8.25 | CCc1cccc(C)c1N(C(=O)CS(=O)(=O)O)C(C)COC (stereo not drawn) |
| 10.4 | CCCCCCCCCC[N+](C)(C)Cc1ccccc1 |
| 8.54 | COc1ccc(CCN(C)CCCC(C#N)(c2ccc(OC)c(OC)c2)C(C)C)cc1OC (stereo not drawn) |
| 6.52 | CN(C)c1ccc(-c2nc3ccccc3[nH]2)cc1 |
| 7.41 | CC(=O)Nc1ccc(S(=O)(=O)Nc2cc(C)on2)cc1 |
| 8.85 | CCCC[P+](c1ccccc1)(c1ccccc1)c1ccccc1 |
| 8.37 | O=C(c1ccc(O)cc1O)c1ccc(O)cc1O |
| 8.23 | CC(C)(c1ccc(OCC(O)CO)cc1)c1ccc(OCC(O)CO)cc1 (stereo not drawn) |
| 7.35 | CC1(C)OCC2OC3(C(=O)O)OC(C)(C)OC3C2O1 (stereo not drawn) |
| 10.1 | COc1ccc(OC)cc1 |
| 10.3 | O=C(NCc1ccccc1)NC1CCCCC1 |
| 5.55 | Nc1ccc(S(=O)(=O)Nc2ccccn2)cc1 |
| 5.22 | O=C(O)CCCCC(=O)O |
| 6.22 | COc1ccccc1-c1nc2ccccc2[nH]1 |
| 14.9 | CCCCCCCCCCCCCCCC(=O)OCC(O)COP(=O)([O-])OCC[N+](C)(C)C (stereo not drawn) |
| 6.76 | COCCN(C(=O)CS(=O)(=O)O)c1c(C)cccc1C |
| 2.94 | CNC(=C[N+](=O)[O-])NCCS(=O)Cc1ccc(CN(C)C)o1 (stereo not drawn) |
| 7.06 | CC(C)NCC(O)COc1ccc(CCOCC2CC2)cc1 (stereo not drawn) |
| 8.2 | COCCCOc1cc(CC(CC(N)C(O)CC(C(=O)NCC(C)(C)C(N)=O)C(C)C)C(C)C)ccc1OC (stereo not drawn) |
| 4.41 | Cc1cc(N)no1 |
| 7.79 | c1ccc([P+](c2ccccc2)(c2ccccc2)C2CC2)cc1 |
| 2.57 | c1ncc2[nH]cnc2n1 |

| SMILES | LC retention time [min] |
| --- | --- |
| CNCC(CC(=O)O)CC(C)C (stereo not drawn) | 4.84 |
| CCCCOCCOP(=O)(OCCOCCCC)OCCOCCCC | 14.6 |
| c1ccc2c(c1)Nc1ccccc1S2 | 13.1 |
| COc1cccc(C2(O)CCCCC2CN(C)C)c1 (stereo not drawn) | 6.21 |
| COc1cc(C(=O)O)cc(OC)c1OC | 7.63 |
| CC(C)(C)[P+](=O)C(C)(C)C | 7.1 |
| S=P(c1ccccc1)(c1ccccc1)c1ccccc1 | 14.5 |
| CCCCOP(=O)(O)OCCCC | 8.01 |
| Cc1nnc(-c2ccccc2)c(=O)n1N | 6.78 |
| c1ccc2sc(C3CCCNC3)nc2c1 (stereo not drawn) | 5.62 |
| COCC(=O)N(c1c(C)cccc1C)C(C)C(=O)OC (stereo not drawn) | 10.2 |
| C[N+](C)(C)Cc1ccccc1 | 4.46 |
| O=P(O)(O)Cc1ccccc1 | 5.04 |
| CCOC(=O)c1cncn1C(C)c1ccccc1 (stereo not drawn) | 8.83 |
| CCP(=O)(CC)CC | 5.15 |
| NP(=O)(c1ccccc1)c1ccccc1 | 7.41 |
| CNC(=O)N(C)c1nc2ccccc2s1 | 9.78 |
| CC(C)c1ccccc1OP(=O)(Oc1ccccc1)Oc1ccccc1C(C)C | 17.4 |
| NCCc1c[nH]c2ccccc12 | 4.97 |
| c1ccc(Nc2ccc(Nc3ccccc3)cc2)cc1 | 14.5 |
| O=[P+](c1ccccc1)c1ccccc1 | 8.03 |
| CC(C)CC(CN)CC(=O)O (stereo not drawn) | 5.17 |
